Assay results reported in patent US8952024B2, “Herbicidal pyrimidone derivatives” (E I du Pont de Nemours and Company, priority 2009, dated 2015).

Legend:
Assay in all cases: Test B pre-/postemergence plant response
Format in all cases: in vivo
[1] = system: Surinam grass (Brachiaria decumbens); conditions: for Plant response rating, Surinam Grass: Postemergence
Procedure, shortened: (§1)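 Seeds were sown in loam soil/sand blend and treated preemergence with compound in non-phytotoxic solvent mixture containing surfactant; postemergence sprays, same formulation, went onto plants 2 to 18 cm (1- to 4-leaf stage) in peat-based planting medium. Greenhouse 13 to 15 days, then visual rating versus untreated controls, 0 (no effect) to 100 (complete control).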

[2] = system: blackgrass (Alopecurus myosuroides); conditions: for Plant response rating, Blackgrass: Postemergence
Procedure, shortened: as §1

[3] = system: corn (Zea mays); conditions: for Plant response rating, Corn: Postemergence
Procedure, shortened: as §1

[4] = system: downy bromegrass (Bromus tectorum); conditions: for Plant response rating, Bromegrass, Downy: Postemergence
Procedure, shortened: as §1

[5] = system: goosegrass (Eleusine indica); conditions: for Plant response rating, Goosegrass: Postemergence
Procedure, shortened: as §1

[6] = system: green foxtail (Setaria viridis); conditions: for Plant response rating, Foxtail, Green: Postemergence
Procedure, shortened: as §1

[7] = system: johnsongrass (Sorghum halepense); conditions: for Plant response rating, Johnsongrass: Postemergence
Procedure, shortened: as §1

[8] = system: kochia (Kochia scoparia); conditions: for Plant response rating, Kochia: Postemergence
Procedure, shortened: as §1

[9] = system: lambsquarters (Chenopodium album); conditions: for Plant response rating, Lambsquarters: Postemergence
Procedure, shortened: as §1

[10] = system: large crabgrass (Digitaria sanguinalis); conditions: for Plant response rating, Crabgrass, Large: Postemergence
Procedure, shortened: as §1

[11] = system: morningglory (Ipomoea coccinea); conditions: for Plant response rating, Morningglory: Postemergence
Procedure, shortened: as §1

[12] = system: pigweed (Amaranthus retroflexus); conditions: for Plant response rating, Pigweed: Postemergence
Procedure, shortened: as §1

[13] = system: soybean (Glycine max); conditions: for Plant response rating, Soybean: Postemergence
Procedure, shortened: as §1

[14] = system: velvetleaf (Abutilon theophrasti); conditions: for Plant response rating, Velvetleaf: Postemergence
Procedure, shortened: as §1

[15] = system: wild oat (Avena fatua); conditions: for Plant response rating, Oat, Wild: Postemergence
Procedure, shortened: as §1

[16] = system: woolly cupgrass (Eriochloa villosa); conditions: for Plant response rating, Cupgrass, Woolly: Postemergence
Procedure, shortened: as §1

[17] = system: yellow nutsedge (Cyperus esculentus); conditions: for Plant response rating, Nutsedge, Yellow: Postemergence
Procedure, shortened: as §1

[18] = 62 g ai/ha, postemergence, 0 is no effect, 100 is complete control, 13 to 15 days
[19] = 31 g ai/ha, 0 to 100 scale (0 no effect, 100 complete control)
[20] = 125 g ai/ha, scale 0 to 100 (0 no effect, 100 complete control)
[21] = 250 g ai/ha, scale 0 to 100 (0 no effect, 100 complete control)

For `COCCCn1c(-c2cccc(F)c2)ncc(C(=O)C2=C(O)CCCC2=O)c1=O` [Compound 126], the “Surinam Grass plant response rating (0 to 100 scale)” value [1, 18] was 80, the “Plant response rating, Surinam Grass” value [1, 19] was 70 and the “Plant response rating, Surinam Grass” value [1, 20] was 85. For the same compound, the “Plant response rating, Surinam Grass” value [1, 21] was 98, the “Blackgrass plant response rating (0 to 100 scale)” value [2, 18] was 25 and the “Plant response rating, Blackgrass” value [2, 19] was 5. For the same compound, the “Plant response rating, Blackgrass” value [2, 20] was 30, the “Plant response rating, Blackgrass” value [2, 21] was 45 and the “Corn plant response rating (0 to 100 scale)” value [3, 18] was 30. The “Plant response rating, Corn” value [3, 19] was 10, the “Plant response rating, Corn” value [3, 20] was 55 and the “Plant response rating, Corn” value [3, 21] was 80. For the same compound, the “Bromegrass, Downy plant response rating (0 to 100 scale)” value [4, 18] was 15, the “Plant response rating, Bromegrass, Downy” value [4, 19] was 5 and the “Plant response rating, Bromegrass, Downy” value [4, 20] was 30. The “Plant response rating, Bromegrass, Downy” value [4, 21] was 40, the “Goosegrass plant response rating (0 to 100 scale)” value [5, 18] was 70 and the “Plant response rating, Goosegrass” value [5, 19] was 65. For the same compound, the “Plant response rating, Goosegrass” value [5, 20] was 75, the “Plant response rating, Goosegrass” value [5, 21] was 85 and the “Foxtail, Green plant response rating (0 to 100 scale)” value [6, 18] was 80. For the same compound, the “Plant response rating, Foxtail, Green” value [6, 19] was 50, the “Plant response rating, Foxtail, Green” value [6, 20] was 90 and the “Plant response rating, Foxtail, Green” value [6, 21] was 95. The “Johnsongrass plant response rating (0 to 100 scale)” value [7, 18] was 65, the “Plant response rating, Johnsongrass” value [7, 19] was 65 and the “Plant response rating, Johnsongrass” value [7, 20] was 85. For the same compound, the “Plant response rating, Johnsongrass” value [7, 21] was 90, the “Kochia plant response rating (0 to 100 scale)” value [8, 18] was 25 and the “Plant response rating, Kochia” value [8, 19] was 10. For the same compound, the “Plant response rating, Kochia” value [8, 20] was 25, the “Plant response rating, Kochia” value [8, 21] was 85 and the “Lambsquarters plant response rating (0 to 100 scale)” value [9, 18] was 85. The “Plant response rating, Lambsquarters” value [9, 19] was 70, the “Plant response rating, Lambsquarters” value [9, 20] was 85 and the “Plant response rating, Lambsquarters” value [9, 21] was 98. For the same compound, the “Crabgrass, Large plant response rating (0 to 100 scale)” value [10, 18] was 80, the “Plant response rating, Crabgrass, Large” value [10, 19] was 75 and the “Plant response rating, Crabgrass, Large” value [10, 20] was 85. For the same compound, the “Plant response rating, Crabgrass, Large” value [10, 21] was 90, the “Morningglory plant response rating (0 to 100 scale)” value [11, 18] was 85 and the “Plant response rating, Morningglory” value [11, 19] was 75. For the same compound, the “Plant response rating, Morningglory” value [11, 20] was 100, the “Plant response rating, Morningglory” value [11, 21] was 100 and the “Pigweed plant response rating (0 to 100 scale)” value [12, 18] was 95. The “Plant response rating, Pigweed” value [12, 19] was 75, the “Plant response rating, Pigweed” value [12, 20] was 98 and the “Plant response rating, Pigweed” value [12, 21] was 98. For the same compound, the “Soybean plant response rating (0 to 100 scale)” value [13, 18] was 75, the “Plant response rating, Soybean” value [13, 19] was 70 and the “Plant response rating, Soybean” value [13, 20] was 85. For the same compound, the “Plant response rating, Soybean” value [13, 21] was 98, the “Velvetleaf plant response rating (0 to 100 scale)” value [14, 18] was 90 and the “Plant response rating, Velvetleaf” value [14, 19] was 80. The “Plant response rating, Velvetleaf” value [14, 20] was 95, the “Plant response rating, Velvetleaf” value [14, 21] was 98 and the “Oat, Wild plant response rating (0 to 100 scale)” value [15, 18] was 10. For the same compound, the “Plant response rating, Oat, Wild” value [15, 19] was 5, the “Plant response rating, Oat, Wild” value [15, 20] was 35 and the “Plant response rating, Oat, Wild” value [15, 21] was 50. The “Cupgrass, Woolly plant response rating (0 to 100 scale)” value [16, 18] was 75, the “Plant response rating, Cupgrass, Woolly” value [16, 19] was 65 and the “Plant response rating, Cupgrass, Woolly” value [16, 20] was 85. For the same compound, the “Plant response rating, Cupgrass, Woolly” value [16, 21] was 90, the “Nutsedge, Yellow plant response rating (0 to 100 scale)” value [17, 18] was 75 and the “Plant response rating, Nutsedge, Yellow” value [17, 19] was 65. The “Plant response rating, Nutsedge, Yellow” value [17, 20] was 80 and the “Plant response rating, Nutsedge, Yellow” value [17, 21] was 80.
